Results from patent US4250259A, “Microbiological production of ketones from C3 -C6 secondary alcohols” (priority 1979, dated 1981).

Tests used:
[1] = system: Methylobacterium organophilum XX (ATCC 27886); test: sec-alcohols to ketones by resting cell suspensions; format: cell-based
Procedure: (§1) The pH of the nutrient medium was adjusted to 7.0 by the addition of acid or base and 50 ml. samples of the nutrient medium were charged into a plurality of 300 ml. shaker flasks. The shaker flasks were inoculated with an inoculating loop of cells from an agar plate containing homogeneous colonies of the microorganisms on the plate (the purity of the isolates was confirmed by microscopic examination). The isolates had been maintained on methanol (0.4% V/V) agar plates or on agar plates under an atmosphere of methane and air having a 1:1 V/V gas ratio which had been transferred every two weeks. For growth on methanol, the medium was supplemented with 0.4% methanol. For growth on methane, the gaseous phase of the inoculated flasks was replaced with a gas mixture comprised of methane and air having a ratio of 1:1 on a V/V basis. The inoculated flasks were sealed air-tight and were incubated on a rotary shaker of orbital radius 2.5 cm. at 250 rpm and at 30° C. for two days until turbidity in the medium had developed. The cells were harvested by centrifugation at 10,000×g. at 4° C. for 30 minutes. The cell pellet was washed twice with a 0.05 M phosphate buffer at a pH of 7.0 (containing 0.02 M MgCl2). The washed cells were then suspended in a 0.05 M phosphate buffer at pH 7.0.
(§2) A 0.5 ml. sample of each washed cell suspension (2 mg. cells) was put into 10 ml. vials at 4° C. which were sealed with a rubber cap. The gaseous phase of the vials was removed with vacuum and then was replaced with a gas mixture of the substrate reactant (i.e., alkane or secondary alcohol) and oxygen at a 1:1 V/V ratio. (In the case of a liquid substrate, i.e., secondary alcohol, 10 μl of the substrate was put in the 10 ml. vials). […] Samples of product (1-3 μl) were withdrawn periodically with a microsyringe and the products were analyzed by gas chromatography (ionization flame detector column).
(§3) The procedure in Example 1 was repeated wherein a plurality of the methane-utilizing methylotrophic microorganisms were each grown aerobically in a nutrient medium containing methane as the alcohol dehydrogenase enzyme inducer and as the major carbon and energy source for growth. The cells were harvested and washed as described in Example 1. The resting microbial cells of the induced methane-grown methane-utilizing methylotrophic microorganisms were then contacted with C3 -C6 secondary alcohols in a buffered solution by the procedure of Example 1.
(§4) In this example, the procedure in Example 1 was repeated except that a plurality of methane-utilizing methylotrophic microorganisms were each aerobically grown in a methanol-containing nutrient medium instead of a methane-containing medium. The nutrients in the medium were the same as indicated in Example 1 except that 0.4% V/V methanol was used as the alcohol dehydrogenase inducer and major source of carbon and energy for growth. Following growth, the cells were harvested and washed as described in Example 1.
(§5) The resting cells of the induced methanol-grown methylotrophic microorganisms were then contacted with secondary alcohols in a buffered solution by the procedure described in Example 1.
(§6) The procedure in Example 1 was repeated except that the methylotrophic microorganisms were each aerobically grown in an alcohol dehydrogenase-inducing growth medium containing methylamine or methyl formate as the alcohol dehydrogenase enzyme inducer and growth substrate instead of methane. The nutrients in the medium were the same as indicated in Example 1 except that 0.4% V/V of the alcohol dehydrogenase-inducer growth substrate was used as the major carbon and energy source. The cells were harvested and washed as described in Example 1. The resting microbial cells were then contacted with C3 -C6 secondary alcohols in a buffered solution by the conversion procedure of Example 1.

[2] = system: Methylosinus trichosporium OB3b (NRRL B-11,196); test: as above; format: cell-based
Procedure: as §1, §2, §3, §4, §5, §6

[3] = system: Methylobacter capsulatus Y (NRRL B-11,201); test: as above; format: cell-based
Procedure: as §1, §2, §3, §4, §5

[4] = system: Methylococcus capsulatus, Texas (ATCC 19069); test: as above; format: cell-based
Procedure: as §1, §2, §3, §4, §5

[5] = system: Methylocystis parvus OBBP (NRRL B-11,198); test: as above; format: cell-based
Procedure: as §1, §2, §3, §4, §5

[6] = system: Methylomonas methanica S1 (NRRL B-11,199); test: as above; format: cell-based
Procedure: as §1, §2, §3, §4, §5

[7] = system: Pseudomonas MS ATTC 25262 (Facultative); test: as above; format: cell-based; conditions: methanol-grown cells
Procedure: as §1, §2
(§7) The procedure in Example 1 was repeated except that a plurality of methanol-utilizing methylotrophic microorganisms were each aerobically grown in a methanol-containing nutrient medium instead of a methane-containing medium. The nutrients in the medium were the same as indicated in Example 1 except that 0.4% V/V methanol was used as the alcohol dehydrogenase inducer and as the major carbon and energy source for growth. The cells were harvested and washed as described in Example 1. The resting microbial cells of the induced methanol-grown methanol-utilizing methylotrophic microorganisms were then contacted with C3 -C6 secondary alcohols in a buffered solution by the procedure of Example 1.

[8] = system: Pseudomonas sp. ATCC 21439 (Obligate); test: as above; format: cell-based; conditions: methanol-grown cells
Procedure: as §1, §2, §7

[9] = system: secondary alcohol dehydrogenase (SADH), cell-free soluble extract; test: oxidation of sec-alcohols by cell-free soluble extracts; format: biochemical, Methylosinus trichosporium OB3b (NRRL B-11,196); conditions: for Oxidation Rate, sec-alcohol to corresponding ketone: soluble crude extract, grown on methanol
Procedure: (§8) To prepare the cell-free secondary alcohol dehydrogenase (SADH) system, the washed cells were disrupted with a Wave Energy Ultrasonic Oscillator, Model W201 (Wave Energy System, Inc., Newtown, Pa.) and centrifuged at 20,000×g. for 30 minutes. […] The enzyme activity was measured with a fluorescence spectrophotometer (Perkin Elmer, Model MPF 44A) by following the formation of reduced NAD (EX 340 nm, Em 460 nm). The formation of reduced NAD was also followed with an absorption spectrophotometer at 340 nm. The assay system (3 ml.) contained: potassium phosphate buffer pH 7.0; 150 μmol.; NAD 1 μmol.; a given amount of enzyme preparation; and secondary alcohol 10 μmol. The reaction was started by the addition of substrate. One unit of enzyme activity represents the reduction of one μmole NAD per minute. Protein concentrations were determined by the Lowry method (J. Biol. Chem., 193: 255-275 (1951)).
(§9) The experimental procedure for the tests reported in Table VIII were as follows: 1 mg protein of crude extract was added into a 0.5 ml. 0.05 M phosphate buffer (pH 7.0) in a 10-ml. vial. […] The reaction mixture was incubated at 30° C. on a water bath. A 3 μl sample was removed with a syringe at 15 min. of incubation and was assayed with g.l.c. Catalytic activity was also assayed by fluorescence spectrophotometry.

[10] = system: secondary alcohol dehydrogenase (SADH), cell-free soluble extract; test: as above; format: biochemical, Methylococcus capsulatus CRL M1 (NRRL B-11,219); conditions: for Oxidation Rate, sec-alcohol to corresponding ketone: soluble crude extract, grown on methanol
Procedure: as §8, §9

| SMILES | Conversion Rates, sec-alcohol to corresponding ketone ([1]; cells grown on methane) [μmoles/hr/mg protein] | Conversion Rates, sec-alcohol to corresponding ketone ([1]; cells grown on methanol) [μn moles/hr/mg protein] | Conversion Rates, sec-alcohol to corresponding ketone ([1]; methyl formate-grown cells) [μmoles/hr/mg protein] | Conversion Rates, sec-alcohol to corresponding ketone ([2]; cells grown on methane) [μmoles/hr/mg protein] | Conversion Rates, sec-alcohol to corresponding ketone ([2]; cells grown on methanol) [μn moles/hr/mg protein] | Conversion Rates, sec-alcohol to corresponding ketone ([2]; methyl formate-grown cells) [μmoles/hr/mg protein] | Conversion Rates, sec-alcohol to corresponding ketone ([3]; cells grown on methane) [μmoles/hr/mg protein] | Conversion Rates, sec-alcohol to corresponding ketone ([3]; cells grown on methanol) [μn moles/hr/mg protein] | Conversion Rates, sec-alcohol to corresponding ketone ([4]; cells grown on methane) [μmoles/hr/mg protein] | Conversion Rates, sec-alcohol to corresponding ketone ([4]; cells grown on methanol) [μn moles/hr/mg protein] | Conversion Rates, sec-alcohol to corresponding ketone ([5]; cells grown on methane) [μmoles/hr/mg protein] | Conversion Rates, sec-alcohol to corresponding ketone ([5]; cells grown on methanol) [μn moles/hr/mg protein] | Conversion Rates, sec-alcohol to corresponding ketone ([6]; cells grown on methane) [μmoles/hr/mg protein] | Conversion Rates, sec-alcohol to corresponding ketone ([6]; cells grown on methanol) [μn moles/hr/mg protein] | Conversion Rates, sec-alcohol to corresponding ketone [7] [μmoles/hr/mg protein] | Conversion Rates, sec-alcohol to corresponding ketone [8] [μmoles/hr/mg protein] | Oxidation Rate, sec-alcohol to corresponding ketone [9] [nmole/min/mg protein] | Oxidation Rate, sec-alcohol to corresponding ketone [10] [nmole/min/mg protein] | also measured |
| --- | --- | --- | --- | --- | --- | --- | --- | --- | --- | --- | --- | --- | --- | --- | --- | --- | --- | --- | --- |
| CCC(C)O (centres unmarked) [2-Butanol, 2-butanol] | 2.5 | 2.8 | 3.5 | 3.7 | 4.1 | 4.5 | 0.84 | 1.5 | 0.60 | 0.70 | 1.1 | 1.0 | 0.39 | 0.40 | 3.5 | 4.7 | 2.4 | 2.0 | Conversion Rate, 2-butanol to 2-butanone ([9]; Growth Substrate CH3 NH2): 2.5 nmoles/min/mg protein; Conversion Rate, 2-butanol to 2-butanone ([9]; Growth Substrate CH3 OH): 2.4 nmoles/min/mg protein; Conversion Rate, 2-butanol to 2-butanone ([9]; Growth Substrate CH4): 4.5 nmoles/min/mg protein; Conversion Rate, 2-butanol to 2-butanone ([9]; Growth Substrate HCOOCH3): 2.0 nmoles/min/mg protein; Conversion Rate, 2-butanol to 2-butanone ([10]; Growth Substrate CH3 NH2): 1.8 nmoles/min/mg protein; Conversion Rate, 2-butanol to 2-butanone ([10]; Growth Substrate CH3 OH): 2.0 nmoles/min/mg protein; Conversion Rate, 2-butanol to 2-butanone ([10]; Growth Substrate CH4): 3.2 nmoles/min/mg protein; Conversion Rate, 2-butanol to 2-butanone ([10]; Growth Substrate HCOOCH3): 2.0 nmoles/min/mg protein |
| CCCCC(C)O (centres unmarked) [2-Hexanol, 2-hexanol] | 0.12 | 1.1 | 0.70 | 0.07 | 0.9 | 0.72 | 0.1 | 0.12 | 1.0 | 1.3 | 0.065 | 0.05 | 0.01 | 0.04 | 0.80 | 0.03 | 0 | 0 | – |
| CCCC(C)O (centres unmarked) [2-Pentanol, 2-pentanol] | 0.82 | 0.9 | 1.0 | 2.7 | 2.9 | 1.5 | 0.5 | 0.60 | 2.5 | 3.5 | 0.80 | 0.82 | 0.25 | 0.45 | 2.1 | 0.05 | 0.1 | 0.1 | – |
| CC(C)O [2-Propanol, 2-propanol] | 0.5 | 0.70 | 0.48 | 0.25 | 0.30 | 0.95 | 0.15 | 0.52 | 0.80 | 0.75 | 0.32 | 0.25 | 0.40 | 0.35 | 0.80 | 7.4 | 2.0 | 1.7 | – |
